Results: patent US6171786A, “Methods for preventing multidrug resistance in cancer cells” (priority 1996, dated 2001)
Entries after “also recorded” stand apart in the source; their conditions may differ. Read-outs that look alike come from different tables or passages of the source.

Assays:
[1] = tested on: MDR1 expression (P-glycoprotein); assay: Induction of MDR1 expression by cytotoxic drugs (dye efflux, UIC2, cDNA-PCR); format: cell-based, human
Protocol: (§1) (Commercially-available kits (for example, from GIBCO/BRL, Gaithersburg, Md.) can be advantageously modified for making cDNA using random hexamers.) PCR is then performed using the following primers: […]
(§2) (where β2 M represents β2 microglobulin). PCR was performed for β2 M experiments under a regime consisting of 1 cycle comprising denaturation at 94° C. for 3 minutes, primer annealing at 60° C. for 30 seconds, and primer extension at 72° C. for 1 minute, followed by 19 cycles comprising denaturation at 94° C. for 30 seconds, primer annealing at 60° C. for 30 seconds, and primer extension at 72° C. for 1 minute, followed by a final cycle comprising denaturation at 94° C. for 30 seconds, primer annealing at 60° C. for 30 seconds, and primer extension at 72° C. for 5 minutes. MDR1 cDNA sequences were amplified using the identical protocol as for β2 M, but extending the amplification from 19 cycles to 25 cycles. In addition, the cDNA-PCR amplification protocol contained the following modifications: (i) Taq DNA polymerase was added to the PCR mixtures after initial heating of the samples to 94° C. (ii) The yield of the β2 -microglobulin-specific band, obtained after 22-28 cycles of PCR, was used as the primary criterion for equalizing the starting amounts of the cDNA templates in different preparations, in order to account for differential RNA degradation in cells subjected to different types of treatment. ^32 P-labeled PCR products were detected by autoradiography.
In particular PKC is activated by treatment with Ara-C. Therefore, experiments were performed to test whether Ara-C, which is not transported by P-glycoprotein, would have any effect on P-glycoprotein function in K562 leukemia cells.
Also assayed was whether drug-induced MDR1 expression was maintained after cytotoxic drug treatment. […] At different times, MDR1 expression in the surviving cells was analyzed by dye efflux and immunofluorescence labeling with UIC2 (FIG. 3C) or by cDNA-PCR (FIG. 4E).

[2] = tested on: MDR1 expression; assay: Inhibition of cytotoxic drug-induced MDR1 expression by cytoplasmic calcium antagonists and calmodulin inhibitors; format: cell-based, human; details: H9
Protocol: H9 cells were incubated as described above in the presence of the following cytotoxic drugs: Ara C (at a concentration of 25 μM), Adriamycin (2 μM), bleomycin (100 μg/ml), 2-deoxyglucose (10 mM) and nocodazole (2.5 μM). In parallel, cultures of H9 cells were incubated in the presence of each of these cytotoxic drugs and of a highly specific chelator of intracellular calcium ion, 1, 2-bis(o-aminophenoxy)-ethane-N,N,N',N'-tetraacetic acid, tetra(acetoxymethyl)-ester (BAPTA/AM) at a concentration of 5 μM for 10 hrs. under the conditions described above. The inhibitor was added 45 min. prior to the addition of each of the MDR1 inducing agents. cDNA-PCR analysis, including gel electrophoresis and autoradiography as described above, was performed for each culture after drug treatment in the presence or absence of this chelator.
H9 cells were incubated as above with 25 μM AraC in the presence or absence of 10 μM calmidazolium chloride, and cDNA-PCR analysis as described above was performed.

[3] = tested on: MDR1 expression (P-glycoprotein); assay: MDR1/P-glycoprotein expression in human cells treated with TPA, DOG, other agents (Rh123 accumulation, UIC2 staining, cDNA-PCR); format: cell-based
Protocol: KG1 cell line was maintained in Iscove's modified Dulbecco medium with 20% fetal calf serum (FCS) and 2 mM L-glutamine, 100 units/mL penicillin and 100 μg/mL streptomycin (GIBCO Laboratories, Grand Island, N.Y.).
PBL were treated with 1 ng/mL TPA; H9 and K562 cells with 10 ng/mL TPA; KG1a and KG1 cells with 100 ng/mL TPA and the other cell lines with 10 ng/mL TPA.
Mouse IgG2a isotype control antibody was obtained from Sigma. For staining of PBL with UIC2 mAb or isotype control, 10^6 cells were stained at 4° C. with 10 μg of the antibody for 30 minutes and, after two washes, stained for 30 minutes with 10 μg of FITC-conjugated goat anti-mouse IgG2a antibody (Fisher Scientific, Fairlawn, N.J.), diluted 1:2 with PBS plus 2% FCS. Cells were then washed twice with ice-cold PBS plus 2% FCS, stained with PI and kept on ice until analysis. Essentially the same protocol was used for staining of other cell types except that 2 μg of the secondary antibody were used per 10^6 cells. In some experiments, phycoerythrine (PE)-conjugated goat anti-mouse IgG2a was used as the secondary antibody; no PI was added in such cases.
as §1, §2
A functional assay was used to detect changes in P-glycoprotein activity in human PBL treated with different agents that induce lymphoid differentiation or activation, based on flow cytometric analysis of cellular accumulation of Rh123, which is a P-glycoprotein-transported fluorescent mitochondrial dye. In this assay, cells expressing little or no P-glycoprotein stain brightly with Rh123, whereas cells with higher levels of P-glycoprotein activity appear Rh123-dull. […] Since the best-known cellular effect of TPA is the stimulation of PKC, DOG (a cell-permeable diacylglycerol and a physiological stimulant of PKC) was also tested to determine its effects on Rh123 accumulation in PBL.

[4] = tested on: MDR1 expression; assay: Inhibition of cytotoxic drug-induced MDR1 expression by protein kinase inhibitors (cDNA-PCR); details: for inhibition of MDR1 induction by cytotoxic drugs: concentration not stated
Protocol: Cells were plated in 6-well Falcon tissue culture plates at 3,300 cells per well, and incubated in the appropriate concentrations of drugs. Each of the protein kinase inhibitors to be tested were added at the appropriate final concentration 45 minutes prior to MDR1 induction by the addition of Ara-C or TPA, with the exception of herbimycin A, which was added 12 hours prior to Ara-C or TPA, and tyrphostins A25 and B46, which were each added 16 hours prior to MDR1 induction by the addition of Ara-C or TPA. Cells were incubated overnight (TPA) or for 10 hours (Ara-C) at 37° C./ 5% CO2 after the addition of the MDR1 inducing agents before harvesting for cDNA-PCR analysis.
In addition, the analysis of certain drugs imposed added requirements. For experiments using calphostin C, cells were incubated under direct white light illumination. For experiments using D,L-threo-sphingosine, the cell culture medium was pre-treated with the appropriate concentration of the drug for one hour at 37° C. with continuous gentle mixing. After this pretreatment, cells were resuspended in media supplemented with drug and incubated for 45 minutes as described above.
To further evaluate the capacity of protein kinase inhibitors to suppress MDR1 induction by cytotoxic drugs and PKC agonists, H-9 human T-cell leukemia cells were used in cDNA-PCR assays to examine induced MDR1 mRNA expression levels in the presence of protein kinase inhibitors.

[5] = 50-100 μM tyrphostin, H-9 cells
[6] = human leukemia and solid-tumor derived cell lines, short-term exposure

For `NC(=O)NO` [hydroxyurea], the MDR1 induction [1] was “MDR1 induction, both at the mRNA and at the protein levels, was observed”, the “MDR1 mRNA expression” value [1] was “induce MDR1 mRNA expression” and the “Rh123 or DiOC2(3) efflux by treated cells” value (shortened to “Rh123 or DiOC2(3) efflux”) ([1]; K562) was 3-10%.

In the case of `CC(=O)OCOC(=O)CN(CC(=O)OCOC(C)=O)c1ccccc1OCCOc1ccccc1N(CC(=O)OCOC(C)=O)CC(=O)OCOC(C)=O` [BAPTA/AM, 1,2-bis(o-aminophenoxy)ethane-N,N,N',N'-tetraacetic acid, tetra(acetoxymethyl)ester], the “inhibition of MDR1 induction by 2-deoxyglucose (10 mM)” value ([2]; 5 μM BAPTA/AM) was “completely abrogate the induction of MDR1 expression”, the “inhibition of MDR1 induction by Adriamycin (2 μM)” value ([2]; 5 μM BAPTA/AM) was “completely abrogate the induction of MDR1 expression” and the “inhibition of MDR1 induction by Ara C (25 μM)” value ([2]; 5 μM BAPTA/AM) was “completely abrogate the induction of MDR1 expression”. The “inhibition of MDR1 induction by bleomycin (100 μg/ml)” value ([2]; 5 μM BAPTA/AM) was “completely abrogate the induction of MDR1 expression”, the “inhibition of MDR1 induction by different cytotoxic agents” value ([2]; 5 μM BAPTA/AM) was “completely abrogated the induction of MDR1 expression” and the “inhibition of MDR1 induction by nocodazole (2.5 μM)” value ([2]; 5 μM BAPTA/AM) was “completely abrogate the induction of MDR1 expression”. The “time prior to addition of MDR1 inducers within which inhibitory effect was detectable” value ([2]; BAPTA/AM) was ≤ 3 h.

For `COc1cccc2c1C(=O)c1c(O)c3c(c(O)c1C2=O)C[C@@](O)(C(C)=O)C[C@@H]3O[C@H]1C[C@H](N)[C@H](O)[C@H](C)O1` [daunorubicin], the MDR1 induction [1] was “MDR1 induction, both at the mRNA and at the protein levels, was observed”, the “MDR1 mRNA expression” value [1] was “induce MDR1 mRNA expression” and the “Rh123 or DiOC2(3) efflux” value [1] was 3-10%.

For `CCCCCCCC(=O)OCC(CO)OC(=O)CCCCCCC` (stereo not drawn) [DOG, 1,2-dioctanoylglycerol], the “effect on P-glycoprotein activity (Rh123 accumulation)” value ([3]; human PBL) was “decrease Rh123 accumulation” and the MDR1 gene expression ([3]; normal human PBL and leukemia/solid tumor cell lines) was “increase MDR1 gene expression”.

For `COc1cc([C@@H]2c3cc4c(cc3[C@@H](O[C@@H]3O[C@@H]5CO[C@@H](C)O[C@H]5[C@H](O)[C@H]3O)[C@H]3COC(=O)[C@H]23)OCO4)cc(OC)c1O` [etoposide], the MDR1 induction [1] was “MDR1 induction, both at the mRNA and at the protein levels, was observed”.

In the case of `N#CC(=Cc1ccc(O)c(O)c1)C(=O)NCCCc1ccccc1` [tyrphostin B46], the “inhibition of Ara-C induced MDR1 expression” value [4, 5] was “strongly inhibit Ara-C induced MDR1 expression; also recorded: inhibit Ara-C induced MDR1 expression”.

With `O=c1[nH]cc(F)c(=O)[nH]1` [5-fluorouracil] the MDR1 induction [1] was “MDR1 induction, both at the mRNA and at the protein levels, was observed”.

With `CC1CNCCN1S(=O)(=O)c1cccc2cnccc12` (stereo not drawn) [H7] the “prevention of MDR1 induction by chemotherapeutic drugs” value [4] was “prevent MDR1 induction by chemotherapeutic drugs” and the “inhibition of MDR1 induction by cytotoxic drugs” value [4] was “capable of inhibiting MDR1 induction by cytotoxic drugs”.

In the case of `COC1C=CC=C(C)C(=O)NC2=CC(=O)C=C(C2=O)C(OC)C(C)CC(OC)C(OC)C(C)C=C(C)C1OC(N)=O` (stereo not drawn) [herbimycin A], the “inhibition of Ara-C induced MDR1 expression” value ([4]; 0.35-3 μM herbimycin A) was “little or no capacity to inhibit Ara-C induced MDR1 expression; also recorded: ineffective at inhibiting MDR1 induction by Ara-C”.

With `N.N.[Cl][Pt][Cl]` [cisplatin] the “Rh123 or DiOC2(3) efflux” value ([1]; K562) was 3-10%, the “MDR1 mRNA expression” value ([1]; K562, cDNA-PCR) was “induce MDR1 mRNA expression” and the MDR1 induction [1, 6] was “MDR1 induction, both at the mRNA and at the protein levels, was observed”.

For `O=c1c(-c2ccc(O)cc2)coc2cc(O)cc(O)c12` [genistein], the “Inhibition of Ara-C induced MDR1 expression” value [4] was “+” and the “inhibition of Ara-C induced MDR1 expression” value [4] was “only weakly inhibited Ara-C induced MDR1 expression”.

In the case of `CN(Cc1cnc2nc(N)nc(N)c2n1)c1ccc(C(=O)N[C@@H](CCC(=O)O)C(=O)O)cc1` [methotrexate], the MDR1 induction [1] was “MDR1 induction, both at the mRNA and at the protein levels, was observed” and the “maintenance of MDR1 expression after removal of drug” value [1] was “maintained for a least several weeks”.

For `COc1cccc2c1C(=O)c1c(O)c3c(c(O)c1C2=O)C[C@@](O)(C(=O)CO)C[C@@H]3O[C@H]1C[C@H](N)[C@H](O)[C@H](C)O1` [Adriamycin, Doxorubicin], the “Rh123 or DiOC2(3) efflux” value ([1]; K562) was 3-10%, the “MDR1 mRNA expression” value ([1]; K562, cDNA-PCR) was “induce MDR1 mRNA expression” and the “maintenance of MDR1 expression after removal of drug” value ([1]; K562 subpopulation, treated 3-5 days then drug-free) was “maintained for a least several weeks”. For the same compound, the “MDR1 mRNA expression” value ([1]; KB-3-1 epidermoid carcinoma) was “MDR1 mRNA expression was induced” and the MDR1 induction [1, 6] was “MDR1 induction, both at the mRNA and at the protein levels, was observed”.

For `CCCCCCCCCCCCC/C=C/[C@H](O)[C@@H](N)CO` (relative stereo) [D,L-threo-sphingosine], the “inhibition of Ara-C induced MDR1 expression” value ([4]; 5 μM D,L-threo-sphingosine) was “little or no capacity to inhibit Ara-C induced MDR1 expression; also recorded: ineffective” and the “Inhibition of Ara-C induced MDR1 expression” value ([4]; 5 μM, H-9, 25 μM Ara-C 10 h) was “-”.

`COc1c(CC(C)OC(=O)Oc2ccc(O)cc2)c2c3c(CC(C)OC(=O)c4ccccc4)c(OC)c(=O)c4c(O)cc(OC)c(c5c(OC)cc(O)c(c1=O)c52)c43` (stereo not drawn) [calphostin C] was tested, and the “inhibitory capacity on Ara-C induced MDR1 expression” value ([4]; 0.1 μM calphostin C + white light) was “greatly reduced”, the “inhibition of Ara-C induced MDR1 expression” value ([4]; 1 μM calphostin C + white light) was “capable of inhibiting MDR1 expression; also recorded: prevent MDR1 induction by chemotherapeutic drugs” and the “inhibition of MDR1 induction by cytotoxic drugs” value [4] was “capable of inhibiting MDR1 induction by cytotoxic drugs”.

For `N#CC(C#N)=Cc1cc(O)c(O)c(O)c1` [tyrphostin A25], the “inhibition of Ara-C induced MDR1 expression” value [4, 5] was “strongly inhibit Ara-C induced MDR1 expression; also recorded: inhibit Ara-C induced MDR1 expression”.
